Experimental data reported in EP1056700B1, “MEDICINAL USES OF PHENYLALKANOLS AND DERIVATES” (ZingoTX Pty Ltd, priority 1997, dated 1999).
pEC50: −log10 of the molar value. Entries after “also recorded” stand apart in the source; their conditions may differ. Each block holds one compound with its values, some of them ahead of it.

Tests used:
right atrium-vagus rat = test: Cardiovascular and neuro-effector junction activities: right atrium-vagus, rat; conditions: result in words with concentration
Text: (§1) The cardiotonic action of 1-(4-hydroxy-3-methoxyphenyl)dodecan-3-ol [3.93] was confirmed from independent studies, carried out at our request as part of our agreement with Johnson & Johnson Research Ltd (J&J), by Prof. James Angus from the University of Melbourne. […] A tachycardial effect of the substance on guinea pig atria was, however, observed at significant rate, 50-60% of isoprenaline Emax and the response was not α- or β-adrenoceptor mediated. […] Cardiovascular and neuro-effector junction activities of gingerol analogues

right atrium rat = test: Cardiovascular and neuro-effector junction activities: right atrium, rat; conditions: result in words with concentration
Text: as §1

left atrium rat = test: Cardiovascular and neuro-effector junction activities: left atrium, rat; conditions: result in words with concentration
Text: as §1

vas deferens rat = test: Cardiovascular and neuro-effector junction activities: vas deferens, rat
Text: as §1

diaphragm rat = test: Cardiovascular and neuro-effector junction activities: diaphragm, rat
Text: as §1

[1] = test system: right atrium-vagus guinea pig; test: Cardiovascular and neuro-effector junction activities: right atrium-vagus, guinea pig; conditions: result in words with concentration
Text: as §1

right atrium guinea pig = test: Cardiovascular and neuro-effector junction activities: right atrium, guinea pig; conditions: for right atrium guinea pig: result in words with concentration
Text: as §1

left atrium guinea pig = test: Cardiovascular and neuro-effector junction activities: left atrium, guinea pig; conditions: for left atrium guinea pig: result in words with concentration
Text: as §1

rat mesenteric artery = test: Vasodilation on rat mesenteric small arteries; conditions: for pEC50: Rattus norvegicus, relaxation of small arteries (200-300 µm) precontracted with endothelin; for relaxation of rat mesenteric artery: result in words
Text: Small arteries (200-300 µm in diameter) isolated from rat mesentery were precontracted with endothelin prior to addition of the test substances and tested for relaxation.

[2] = test system: rabbit platelet-rich plasma; test: Antiplatelet aggregation screen with arachidonic acid in rabbit platelet-rich plasma; type: cell-based
Bleeding time in mice = type: in vivo
NK-1 receptor = target: T1, NK-1 receptor (Cavia porcellus, UniProt P30547); test: Neurokinin-1 binding with [^3H]Substance P on guinea pig submaxillary membrane
T1 construct: tested on guinea pig submaxillary membrane; from tissue; host or cells: guinea pig submaxillary membrane
Description: 3-hydroxy-1-(4-hydroxy-3-methoxyphenyl)dodecane [3.93], was tested on guinea pig submaxillary membrane for neurokinin-1 (NK-1) antagonist activity with tritium labelled [^3H]Substance P and found to have relatively potent inhibition of the binding of Substance P to NK-1 receptor. […] It gave approximately 80% inhibition at 30 µM.

[3] = test system: brine shrimp (Artemia salina Leach); test: Brine shrimp toxicity bioassay; type: in vivo; conditions: result in words
[4] = Acute toxicity in mice for 3 days; type: in vivo
Text: However, no toxicity was shown towards mice for dose by the oral route. […] Brine shrimp toxicity for gingerols and gingerol analogues tested ranged from low to moderate.

cardiac Purkinje fibres = test: Cardiac electrophysiology on Purkinje fibres; set-up: species or system dog; conditions: for effect on rate of depolarization, amplitude of action potential and duration of action potential at 50% and 90% repolarization: up to 10 µM
Description: The basic cardiac electrophysiological properties were assessed using cardiac Purkinje fibres obtained from adult mongrel dogs.
Electrophysiology was carried out on dog heart purkinje fibre to test for potential arrhythmia. […] At high concentration (50 µM), however, [8]-gingerol reduced approximate 80% and 50% of action potential duration at 50% and 90% repolarisations respectively. Whereas the analogue reduced 75% and 30% respectively.

[5] = dogs, 0.3 mg / kg, i.v.; cited from earlier work
[6] = result in words with concentration

T1 sequence (P30547 whole entry): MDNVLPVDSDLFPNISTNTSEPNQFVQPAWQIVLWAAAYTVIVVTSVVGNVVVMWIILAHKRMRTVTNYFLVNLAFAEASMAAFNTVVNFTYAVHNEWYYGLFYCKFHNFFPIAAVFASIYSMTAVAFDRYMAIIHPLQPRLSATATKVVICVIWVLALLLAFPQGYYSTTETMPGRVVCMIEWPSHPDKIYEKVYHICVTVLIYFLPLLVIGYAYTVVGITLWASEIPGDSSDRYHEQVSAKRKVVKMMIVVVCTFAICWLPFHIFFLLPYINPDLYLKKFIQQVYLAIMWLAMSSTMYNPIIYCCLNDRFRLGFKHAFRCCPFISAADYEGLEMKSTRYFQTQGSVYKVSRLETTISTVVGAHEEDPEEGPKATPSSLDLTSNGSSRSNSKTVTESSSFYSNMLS

SMILES: CCCCCCCCCC(O)CCc1ccc(O)c(OC)c1 (stereo not drawn) [1-(4-hydroxy-3-methoxyphenyl)dodecan-3-ol]
right atrium-vagus rat (right atrium-vagus rat): dramatic enhancement n=1 10^-6 - 10^-5 M | right atrium rat (right atrium rat): tachycardi a 3x10^-7 - 3x10^-6 M (with propranolo 1 present) | left atrium rat (left atrium rat): no change in force 10^-7 - 10^-5 M (n=2) | block of ATP or α1-receptors in vas deferens (vas deferens rat): Neither blocked | vas deferens rat ↓ (vas deferens rat; 10^-5 M (vehicle?)): ↓30% 10^-5 M (vehicle?) | diaphragm rat ↓ (diaphragm rat; 10^-5 M (vehicle?)): ↓10% 10^-5 M (vehicle?) | right atrium-vagus guinea pig [1]: no enhancement of vagal slowing 10^-7 - 10^-5 M | Emax (right atrium guinea pig; Cavia porcellus, right atrium guinea pig, 10^-7 - 3x10^-5 M, not blocked by praz., prop., read-out: tachycardia, % of isoprenaline Emax): 50 to 60% | right atrium guinea pig (right atrium guinea pig): tachycardia 10^-7 - 3x10^-5 M | tachycardia, % of isoprenaline Emax (right atrium guinea pig; right atrium guinea pig, 10^-7 - 3x10^-5 M, not blocked by praz., prop.): 60% | inotropic, % isopren. max. (left atrium guinea pig; left atrium guinea pig, 10^-6 - 3x10^-5 M (not in rat)): 20% | left atrium guinea pig (left atrium guinea pig): inotropic 10^-6 - 3x10^-5 M | potency (EC50) for relaxation of the mesenteric artery versus inotropic effect in guinea pig atrium (rat mesenteric artery): 100 fold | pEC50 (rat mesenteric artery): 7.00 | relaxation of rat mesenteric artery (rat mesenteric artery): very potent; also recorded: both enantiomers showed similar potency | platelet function via adenosine diphosphate or thromboxane A2 mechanisms [2]: did not affect | antiplatelet aggregation activity compared with the indomethacin reference compound ([2]; arachidonic acid as substrate): three time more potent | effect on bleeding time (Bleeding time in mice): little or no effect | inhibition at 30 µM (NK-1 receptor): ~80% | toxicity towards brine shrimp [3]: low toxicity | Acute toxicity ([4]; mice, 3 days, intraperitoneal administration): slight decrease in spontaneous activity, response to touch and limb tone | Acute toxicity ([4]; mouse, in vivo, po): no toxicity

SMILES: CCCCCCCC(O)CC(=O)c1ccc(O)c(OC)c1 (stereo not drawn) [3-hydroxy-1-(4-hydroxy-3-methoxyphenyl)decan-1-one]
right atrium-vagus rat (right atrium-vagus rat): some enhanced slowing 10^-6 - 10^-5 M | right atrium rat (right atrium rat): no change basal rate 10^-7 - 10^-5 M | left atrium rat (left atrium rat): no change 10^-7 - 3x10^-5 M (sharp fall 10^-4 M) | block of ATP or α1-receptors in vas deferens (vas deferens rat): Neither blocked | vas deferens rat (vas deferens rat; [6]): no effect 10^-4 M | diaphragm rat ↓ (diaphragm rat; 3x10^-5 M): ↓10% 3x10^-5 M | diaphragm rat (diaphragm rat; [6]): no effect 10^-5 M | right atrium-vagus guinea pig [1]: weak? enhanced slowing 10^-7 - 10^-6 M | right atrium guinea pig (right atrium guinea pig): no change basal rate 10^-7 - 10^-5 M | left atrium guinea pig (left atrium guinea pig): • no inotropi sm | effect on isoprenaline response, left atrium guinea pig (left atrium guinea pig; up to 30 µM): • no effect on isoprenali ne response (up to 30 µM) | Action Potential Amplitude (cardiac Purkinje fibres; 5 µM): 125±3 mV | Action Potential Duration 50% repolarisation (cardiac Purkinje fibres; 5 µM): 176 ± 17 ms | Action Potential Duration 90% repolarisation (cardiac Purkinje fibres; 5 µM): 270 ± 26 ms | Maximum rate of depolarisation (cardiac Purkinje fibres; 5 µM): 524±66 V/s | Action Potential Amplitude (cardiac Purkinje fibres; 10 µM): 127±4 mV | Action Potential Duration 50% repolarisation (cardiac Purkinje fibres; 10 µM): 157 ± 23 ms | Action Potential Duration 90% repolarisation (cardiac Purkinje fibres; 10 µM): 257 ± 25 ms | Maximum rate of depolarisation (cardiac Purkinje fibres; 10 µM): 527±78 V/s | Action Potential Amplitude (cardiac Purkinje fibres; 20 µM): 123±6 mV | Action Potential Duration 50% repolarisation (cardiac Purkinje fibres; 20 µM): 124 ± 16 ms | Action Potential Duration 90% repolarisation (cardiac Purkinje fibres; 20 µM): 245 ± 17 ms | Maximum rate of depolarisation (cardiac Purkinje fibres; 20 µM): 521±87 V/s | Action Potential Amplitude (cardiac Purkinje fibres; 30 µM): 115±7 mV | Action Potential Duration 50% repolarisation (cardiac Purkinje fibres; 30 µM): 94 ± 10 ms | Action Potential Duration 90% repolarisation (cardiac Purkinje fibres; 30 µM): 212 ± 21 ms | Maximum rate of depolarisation (cardiac Purkinje fibres; 30 µM): 423±45 V/s | Action Potential Amplitude (cardiac Purkinje fibres; 40 µM): 117±7 mV | Action Potential Duration 50% repolarisation (cardiac Purkinje fibres; 40 µM): 81 ± 10 ms | Action Potential Duration 90% repolarisation (cardiac Purkinje fibres; 40 µM): 201 ± 13 ms | Maximum rate of depolarisation (cardiac Purkinje fibres; 40 µM): 442±61 V/s | Action Potential Amplitude (cardiac Purkinje fibres; 50 µM): 110±9 mV | Action Potential Duration 50% repolarisation (cardiac Purkinje fibres; 50 µM): 55 ± 4 ms | Action Potential Duration 90% repolarisation (cardiac Purkinje fibres; 50 µM): 188 ± 19 ms | Maximum rate of depolarisation (cardiac Purkinje fibres; 50 µM): 363±74 V/s | reduction of action potential duration at 50% repolarisation (cardiac Purkinje fibres; 50 µM): 75% | reduction of action potential duration at 90% repolarisation (cardiac Purkinje fibres; 50 µM): 30% | effect on rate of depolarization, amplitude of action potential and duration of action potential at 50% and 90% repolarization (cardiac Purkinje fibres; listed as 3.92): insignificant effect; also recorded: only a small effect

SMILES: CCCCCCCC(=O)CC(O)CCc1ccc(O)c(OC)c1 (stereo not drawn) [3-hydroxy-1-(4-hydroxy-3-methoxyphenyl)dodecan-5-one]
pEC50 (rat mesenteric artery): 7.40 | relaxation of rat mesenteric artery (rat mesenteric artery): showed potency

pEC50 (rat mesenteric artery): 6.16
SMILES: CCCCCCCC(O)CC(=O)CCc1ccc2c(c1)OCO2 (stereo not drawn) [5-hydroxy-1-(3,4-methylenedioxyphenyl)dodecan-3-one]
relaxation of rat mesenteric artery (rat mesenteric artery): showed potency

SMILES: CCCCCCCC(O)CC(=O)CCc1ccc(O)c(OC)c1 (stereo not drawn) [[8]-gingerol, 5-hydroxy-1-(4-hydroxy-3-methoxyphenyl)dodecan-3-one, reference compound]
Action Potential Amplitude (cardiac Purkinje fibres; 5 µM): 124±2 mV | Action Potential Duration 50% repolarisation (cardiac Purkinje fibres; 5 µM): 242 ± 20 ms | Action Potential Duration 90% repolarisation (cardiac Purkinje fibres; 5 µM): 363 ± 27 ms | Maximum rate of depolarisation (cardiac Purkinje fibres; 5 µM): 532±42 V/s | Action Potential Amplitude (cardiac Purkinje fibres; 10 µM): 120±4 mV | Action Potential Duration 50% repolarisation (cardiac Purkinje fibres; 10 µM): 207 ± 20 ms | Action Potential Duration 90% repolarisation (cardiac Purkinje fibres; 10 µM): 339 ± 26 ms | Maximum rate of depolarisation (cardiac Purkinje fibres; 10 µM): 483±41 V/s | Action Potential Amplitude (cardiac Purkinje fibres; 20 µM): 119±2 mV | Action Potential Duration 50% repolarisation (cardiac Purkinje fibres; 20 µM): 142 ± 20 ms | Action Potential Duration 90% repolarisation (cardiac Purkinje fibres; 20 µM): 285 ± 26 ms | Maximum rate of depolarisation (cardiac Purkinje fibres; 20 µM): 499±41 V/s | Action Potential Amplitude (cardiac Purkinje fibres; 30 µM): 114±3 mV | Action Potential Duration 50% repolarisation (cardiac Purkinje fibres; 30 µM): 107 ± 17 ms | Action Potential Duration 90% repolarisation (cardiac Purkinje fibres; 30 µM): 248 ± 25 ms | Maximum rate of depolarisation (cardiac Purkinje fibres; 30 µM): 443±45 V/s | Action Potential Amplitude (cardiac Purkinje fibres; 40 µM): 116±4 mV | Action Potential Duration 50% repolarisation (cardiac Purkinje fibres; 40 µM): 88 ± 15 ms | Action Potential Duration 90% repolarisation (cardiac Purkinje fibres; 40 µM): 229 ± 22 ms | Maximum rate of depolarisation (cardiac Purkinje fibres; 40 µM): 516±67 V/s | Action Potential Amplitude (cardiac Purkinje fibres; 50 µM): 109±8 mV | Action Potential Duration 50% repolarisation (cardiac Purkinje fibres; 50 µM): 76 ± 12 ms | Action Potential Duration 90% repolarisation (cardiac Purkinje fibres; 50 µM): 221 ± 19 ms | Maximum rate of depolarisation (cardiac Purkinje fibres; 50 µM): 471±73 V/s | reduction of action potential duration at 50% repolarisation (cardiac Purkinje fibres; 50 µM): ~80% | reduction of action potential duration at 90% repolarisation (cardiac Purkinje fibres; 50 µM): ~50% | effect on rate of depolarization, amplitude of action potential and duration of action potential at 50% and 90% repolarization (cardiac Purkinje fibres): insignificant effect | duration of increased cardiac contractility [5]: 10 min | increased cardiac contractility [5]: about 30%
